Reference: PubChem BioAssay AID248 (DTP/NCI, 2004)
Inconclusive results and toxic doses are left out. Cut-off read from the data, not from the text of the source: active = T/C of 150% or more; inactive = T/C below 125%.

System: L1210 leukemia ip in BDF1 mice, survival T/C
Assay: NCI In Vivo Anticancer Drug Screen. Data for tumor model L1210 Leukemia (intraperitoneal) in B6D2F1 (BDF1) mice
Details: higher = longer survival
Method in brief: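 Mice bearing the transplanted tumor received compound or vehicle. Survival of the treated group was divided by that of the vehicle-treated control group to give the ratio.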

[1] = endpoint: mean survival time, dose: 50.0 mg/kg/injection, schedule: Q01DX009 (ip), vehicle: Klucel (hydroxypropylcellulose) (HPC)
[2] = endpoint: mean survival time, dose: 100.0 mg/kg/injection, schedule: Q01DX009 (ip), vehicle: Klucel (hydroxypropylcellulose) (HPC)
[3] = endpoint: mean survival time, dose: 200.0 mg/kg/injection, schedule: Q01DX009 (ip), vehicle: Klucel (hydroxypropylcellulose) (HPC)
[4] = endpoint: mean survival time, dose: 25.0 mg/kg/injection, schedule: Q01DX009 (ip), vehicle: saline with Tween-80
[5] = endpoint: mean survival time, dose: 100.0 mg/kg/injection, schedule: Q04DX003 (ip), vehicle: saline with Tween-80
[6] = endpoint: mean survival time, dose: 200.0 mg/kg/injection, schedule: Q04DX003 (ip), vehicle: saline with Tween-80
[7] = endpoint: mean survival time, dose: 400.0 mg/kg/injection, schedule: Q04DX003 (ip), vehicle: saline with Tween-80
[8] = endpoint: mean survival time, dose: 100.0 mg/kg/injection, schedule: Q04DX003 (ip), vehicle: Klucel (hydroxypropylcellulose) (HPC)
[9] = endpoint: mean survival time, dose: 200.0 mg/kg/injection, schedule: Q04DX003 (ip), vehicle: Klucel (hydroxypropylcellulose) (HPC)

Measured: T/C

CC(=O)O[C@]1(C(C)=O)CC[C@H]2[C@@H]3C[C@H](C)C4=CC(=O)CC[C@]4(C)[C@H]3CC[C@@]21C
inactive: [1] 109 % of control | endpoint: mean survival time, dose: 100.0 mg/kg/injection, schedule: Q01DX001 (sc), vehicle: steriod suspending solution 102 % of control | [2] 101 % of control | endpoint: mean survival time, dose: 200.0 mg/kg/injection, schedule: Q01DX001 (sc), vehicle: steriod suspending solution 108 % of control | [3] 103 % of control | endpoint: mean survival time, dose: 200.0 mg/kg/injection, schedule: Q01DX009 (sc), vehicle: steriod suspending solution 91 % of control | endpoint: mean survival time, dose: 400.0 mg/kg/injection, schedule: Q01DX001 (sc), vehicle: steriod suspending solution 102 % of control | endpoint: mean survival time, dose: 400.0 mg/kg/injection, schedule: Q01DX009 (ip), vehicle: Klucel (hydroxypropylcellulose) (HPC) 100 % of control | endpoint: mean survival time, dose: 400.0 mg/kg/injection, schedule: Q01DX009 (sc), vehicle: steriod suspending solution 94 % of control | endpoint: mean survival time, dose: 600.0 mg/kg/injection, schedule: Q01DX009 (sc), vehicle: steriod suspending solution 96 % of control | endpoint: mean survival time, dose: 800.0 mg/kg/injection, schedule: Q01DX009 (ip), vehicle: Klucel (hydroxypropylcellulose) (HPC) 104 % of control | endpoint: mean survival time, dose: 800.0 mg/kg/injection, schedule: Q01DX009 (sc), vehicle: steriod suspending solution 91 % of control | endpoint: mean survival time, dose: 1000.0 mg/kg/injection, schedule: Q01DX009 (sc), vehicle: steriod suspending solution 94 % of control | endpoint: median survival time, dose: 16.0 mg/kg/injection, schedule: Q03HX008 (ip), vehicle: Klucel (hydroxypropylcellulose) (HPC) 97 % of control | endpoint: median survival time, dose: 16.0 mg/kg/injection, schedule: Q03HX016 (ip), vehicle: Klucel (hydroxypropylcellulose) (HPC) 94 % of control | endpoint: median survival time, dose: 16.0 mg/kg/injection, schedule: Q03HX024 (ip), vehicle: Klucel (hydroxypropylcellulose) (HPC) 96 % of control | endpoint: median survival time, dose: 32.0 mg/kg/injection, schedule: Q03HX008 (ip), vehicle: Klucel (hydroxypropylcellulose) (HPC) 96 % of control | endpoint: median survival time, dose: 32.0 mg/kg/injection, schedule: Q03HX016 (ip), vehicle: Klucel (hydroxypropylcellulose) (HPC) 94 % of control | endpoint: median survival time, dose: 32.0 mg/kg/injection, schedule: Q03HX024 (ip), vehicle: Klucel (hydroxypropylcellulose) (HPC) 95 % of control | endpoint: median survival time, dose: 64.0 mg/kg/injection, schedule: Q01DX009 (ip), vehicle: Klucel (hydroxypropylcellulose) (HPC) 107 % of control | endpoint: median survival time, dose: 64.0 mg/kg/injection, schedule: Q03HX008 (ip), vehicle: Klucel (hydroxypropylcellulose) (HPC) 93 % of control | endpoint: median survival time, dose: 64.0 mg/kg/injection, schedule: Q03HX016 (ip), vehicle: Klucel (hydroxypropylcellulose) (HPC) 94 % of control | endpoint: median survival time, dose: 64.0 mg/kg/injection, schedule: Q03HX024 (ip), vehicle: Klucel (hydroxypropylcellulose) (HPC) 93 % of control | endpoint: median survival time, dose: 128.0 mg/kg/injection, schedule: Q01DX001 (ip), vehicle: Klucel (hydroxypropylcellulose) (HPC) 100 % of control | endpoint: median survival time, dose: 128.0 mg/kg/injection, schedule: Q01DX009 (ip), vehicle: Klucel (hydroxypropylcellulose) (HPC) 105 % of control | endpoint: median survival time, dose: 128.0 mg/kg/injection, schedule: Q03HX008 (ip), vehicle: Klucel (hydroxypropylcellulose) (HPC) 93 % of control | endpoint: median survival time, dose: 128.0 mg/kg/injection, schedule: Q03HX016 (ip), vehicle: Klucel (hydroxypropylcellulose) (HPC) 93 % of control | endpoint: median survival time, dose: 128.0 mg/kg/injection, schedule: Q04DX003 (ip), vehicle: Klucel (hydroxypropylcellulose) (HPC) 102 % of control | endpoint: median survival time, dose: 128.0 mg/kg/injection, schedule: Q08DX002 (ip), vehicle: Klucel (hydroxypropylcellulose) (HPC) 100 % of control | endpoint: median survival time, dose: 256.0 mg/kg/injection, schedule: Q01DX001 (ip), vehicle: Klucel (hydroxypropylcellulose) (HPC) 96 % of control | endpoint: median survival time, dose: 256.0 mg/kg/injection, schedule: Q01DX009 (ip), vehicle: Klucel (hydroxypropylcellulose) (HPC) 104 % of control | endpoint: median survival time, dose: 256.0 mg/kg/injection, schedule: Q04DX003 (ip), vehicle: Klucel (hydroxypropylcellulose) (HPC) 105 % of control | endpoint: median survival time, dose: 256.0 mg/kg/injection, schedule: Q08DX002 (ip), vehicle: Klucel (hydroxypropylcellulose) (HPC) 108 % of control | endpoint: median survival time, dose: 512.0 mg/kg/injection, schedule: Q01DX001 (ip), vehicle: Klucel (hydroxypropylcellulose) (HPC) 100 % of control | endpoint: median survival time, dose: 512.0 mg/kg/injection, schedule: Q01DX009 (ip), vehicle: Klucel (hydroxypropylcellulose) (HPC) 100 % of control | endpoint: median survival time, dose: 512.0 mg/kg/injection, schedule: Q04DX003 (ip), vehicle: Klucel (hydroxypropylcellulose) (HPC) 98 % of control | endpoint: median survival time, dose: 512.0 mg/kg/injection, schedule: Q08DX002 (ip), vehicle: Klucel (hydroxypropylcellulose) (HPC) 100 % of control | endpoint: median survival time, dose: 1024.0 mg/kg/injection, schedule: Q01DX001 (ip), vehicle: Klucel (hydroxypropylcellulose) (HPC) 102 % of control | endpoint: median survival time, dose: 1024.0 mg/kg/injection, schedule: Q01DX009 (ip), vehicle: Klucel (hydroxypropylcellulose) (HPC) 105 % of control | endpoint: median survival time, dose: 1024.0 mg/kg/injection, schedule: Q04DX003 (ip), vehicle: Klucel (hydroxypropylcellulose) (HPC) 114 % of control | endpoint: median survival time, dose: 1024.0 mg/kg/injection, schedule: Q08DX002 (ip), vehicle: Klucel (hydroxypropylcellulose) (HPC) 97 % of control | endpoint: median survival time, dose: 2048.0 mg/kg/injection, schedule: Q01DX001 (ip), vehicle: Klucel (hydroxypropylcellulose) (HPC) 92 % of control | endpoint: median survival time, dose: 2048.0 mg/kg/injection, schedule: Q08DX002 (ip), vehicle: Klucel (hydroxypropylcellulose) (HPC) 95 % of control

COc1ccc(Nc2cccc(Cl)c2)c(C(=O)O)c1
inactive: endpoint: mean survival time, dose: 40.0 mg/kg/injection, schedule: Q01DX009 (ip), vehicle: saline 100 % of control | endpoint: mean survival time, dose: 75.0 mg/kg/injection, schedule: Q01DX001 (ip), vehicle: saline 98 % of control | endpoint: mean survival time, dose: 75.0 mg/kg/injection, schedule: Q01DX009 (ip), vehicle: saline 87 % of control | endpoint: mean survival time, dose: 150.0 mg/kg/injection, schedule: Q01DX001 (ip), vehicle: saline 90 % of control | endpoint: mean survival time, dose: 150.0 mg/kg/injection, schedule: Q01DX009 (ip), vehicle: saline 87 % of control

OC12Cc3ccccc3C1=NN(c1ccccc1)C2c1ccccc1 (centres undefined)
inactive: [4] 101 % of control | endpoint: mean survival time, dose: 50.0 mg/kg/injection, schedule: Q01DX009 (ip), vehicle: saline with Tween-80 104 % of control | endpoint: mean survival time, dose: 100.0 mg/kg/injection, schedule: Q01DX009 (ip), vehicle: saline with Tween-80 90 % of control | [5] 93 % of control | [6] 97 % of control | [7] 91 % of control

Cc1ccc(C)c(NC(=O)Oc2ccc(F)cc2Cl)c1
inactive: [1] 91 % of control | [2] 90 % of control | [8] 94 % of control | [3] 87 % of control | [9] 105 % of control

CC(C)c1ccc(OS(=O)(=O)c2cccc([N+](=O)[O-])c2)cc1
inactive: [5] 100 % of control | [6] 100 % of control | [7] 98 % of control

CCSc1n[nH]c(=O)nc1NN
inactive: endpoint: mean survival time, dose: 10.0 mg/kg/injection, schedule: Q01DX001 (ip), vehicle: acetone 102 % of control | endpoint: mean survival time, dose: 20.0 mg/kg/injection, schedule: Q01DX001 (ip), vehicle: acetone 96 % of control | endpoint: mean survival time, dose: 40.0 mg/kg/injection, schedule: Q01DX001 (ip), vehicle: acetone 96 % of control

O=c1cc(Nc2ccccc2)[nH]c(=O)[nH]1
inactive: endpoint: mean survival time, dose: 100.0 mg/kg/injection, schedule: Q01DX001 (ip), vehicle: Klucel (hydroxypropylcellulose) (HPC) 92 % of control | endpoint: mean survival time, dose: 200.0 mg/kg/injection, schedule: Q01DX001 (ip), vehicle: Klucel (hydroxypropylcellulose) (HPC) 93 % of control | endpoint: mean survival time, dose: 400.0 mg/kg/injection, schedule: Q01DX001 (ip), vehicle: Klucel (hydroxypropylcellulose) (HPC) 95 % of control

COC(=O)C1=C2c3ccc(OC)cc3CCC2C(=O)C1 (centres undefined)
inactive: [8] 97 % of control | [9] 105 % of control | endpoint: mean survival time, dose: 400.0 mg/kg/injection, schedule: Q04DX003 (ip), vehicle: Klucel (hydroxypropylcellulose) (HPC) 89 % of control

CS(=O)(=O)ON1C(=O)c2ccccc2C1=O
inactive: endpoint: mean survival time, dose: 6.25 mg/kg/injection, schedule: Q01DX009 (ip), vehicle: saline with Tween-80 94 % of control | endpoint: mean survival time, dose: 12.5 mg/kg/injection, schedule: Q01DX009 (ip), vehicle: saline with Tween-80 98 % of control | [4] 94 % of control | endpoint: mean survival time, dose: 25.0 mg/kg/injection, schedule: Q04DX003 (ip), vehicle: saline 91 % of control | endpoint: mean survival time, dose: 50.0 mg/kg/injection, schedule: Q04DX003 (ip), vehicle: saline 93 % of control

COC(=O)/C=C/Sc1ccccc1C(=O)OC
inactive: endpoint: mean survival time, dose: 50.0 mg/kg/injection, schedule: Q04DX003 (ip), vehicle: other 104 % of control | endpoint: mean survival time, dose: 100.0 mg/kg/injection, schedule: Q04DX003 (ip), vehicle: other 87 % of control | endpoint: mean survival time, dose: 200.0 mg/kg/injection, schedule: Q04DX003 (ip), vehicle: other 95 % of control
